Values quoted from earlier work as cited in patent US10736868B2, “Compositions comprising rumenic acid-rich conjugated linoleic acid for brain health” (STEPAN SPECIALTY PRODUCTS, LLC, priority 2016, dated 2020).
Where two headings read alike, the source gives them in different places. Values belong to the compound of their own block, whether it stands above or below them.

Experiments:
cognitive function [1] = details: hypertensive older adults
cognitive function [2] = details: hypertensive older adults; remark: listed apart in the source
PPARγ [3] = biological target: T1, PPARγ (Mus musculus, UniProt P37238); details: mouse macrophage cells
T1 construct: host or cells: mouse macrophage cells
T1 sequence (P37238 1-505): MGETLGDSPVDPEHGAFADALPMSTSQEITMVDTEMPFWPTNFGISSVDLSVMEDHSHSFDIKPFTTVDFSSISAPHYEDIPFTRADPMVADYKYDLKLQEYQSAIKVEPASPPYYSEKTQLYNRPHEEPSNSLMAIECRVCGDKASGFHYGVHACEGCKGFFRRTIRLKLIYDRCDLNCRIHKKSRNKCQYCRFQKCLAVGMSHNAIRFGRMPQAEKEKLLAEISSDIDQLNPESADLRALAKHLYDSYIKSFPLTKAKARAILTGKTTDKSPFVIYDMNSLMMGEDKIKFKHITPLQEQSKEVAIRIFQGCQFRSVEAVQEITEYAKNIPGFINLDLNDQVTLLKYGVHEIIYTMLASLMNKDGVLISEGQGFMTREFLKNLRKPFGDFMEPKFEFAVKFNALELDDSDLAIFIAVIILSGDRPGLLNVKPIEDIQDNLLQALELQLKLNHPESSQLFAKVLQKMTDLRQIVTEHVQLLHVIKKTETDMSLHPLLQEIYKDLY

PPARγ [4] = biological target: T2, PPARγ (Homo sapiens, UniProt P37231); details: human epithelial cells
T2 construct: host or cells: human epithelial cells
T2 sequence (P37231 1-505): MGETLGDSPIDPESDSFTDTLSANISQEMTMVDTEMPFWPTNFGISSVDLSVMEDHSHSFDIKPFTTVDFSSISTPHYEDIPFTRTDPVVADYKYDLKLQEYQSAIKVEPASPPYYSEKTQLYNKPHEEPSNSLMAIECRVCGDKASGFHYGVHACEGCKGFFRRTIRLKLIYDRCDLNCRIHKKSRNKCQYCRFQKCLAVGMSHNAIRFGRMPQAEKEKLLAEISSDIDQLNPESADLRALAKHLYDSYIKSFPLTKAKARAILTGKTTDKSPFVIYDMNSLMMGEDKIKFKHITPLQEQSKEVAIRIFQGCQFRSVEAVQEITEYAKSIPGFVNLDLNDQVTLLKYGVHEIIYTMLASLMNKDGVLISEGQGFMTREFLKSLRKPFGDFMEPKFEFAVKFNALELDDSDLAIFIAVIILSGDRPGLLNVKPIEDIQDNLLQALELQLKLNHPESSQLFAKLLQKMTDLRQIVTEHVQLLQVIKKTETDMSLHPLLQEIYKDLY

[5] = test system: allergic responses mediated by inflammation; details: 8 weeks; young men and women with birch pollen allergy

SMILES: CCCCc1nc(Cl)c(CO)n1Cc1ccc(-c2ccccc2-c2nn[nH]n2)cc1 [losartan]
verbal fluency (cognitive function [1]): not
word list memory and recall (cognitive function [1]): improved

SMILES: CCCCC(=O)N(Cc1ccc(-c2ccccc2-c2nnn[nH]2)cc1)[C@H](C(=O)O)C(C)C [valsartan]
identification, verbal fluency, or word list recognition (cognitive function [2]): did not influence
word list memory and recall (cognitive function [2]): improved

PPARγ activation (PPARγ [3]): activated
inflammatory responses via activation of PPARγ (PPARγ [4]): reduced
SMILES: CCCCCC/C=C/C=C\CCCCCCCC(=O)O [RA, cis-9, trans-11 linoleic acid]
allergic responses mediated by inflammation [5]: reduced
